The record followed here is patent publication US9290551B2, “Compounds for treating papilloma virus infection” (NanoVir, LLC, priority 2012, dated 2016).

Format in all cases: cell-based, Human papilloma virus
The test system of assay [1] is HPV31. As to the kind of experiment: HPV31 DNA levels in keratinocytes by real-time PCR. Particulars: effective (pseudo) IC50. On the procedure:
(§1) Human keratinocytes, including those maintaining HPV episomes, are cultured on mitomycin C-treated J2 3T3 cells in media containing three parts Dulbecco's modified Eagle medium (DMEM) and one part F12 media, our modification of published methods (Rheinwald and Green, 1975). Media (E Media) is supplemented with 0.4 μg/mL hydrocortisone, 10 ng/mL cholera toxin, 5 μg/mL insulin, 24 μg/mL adenine, 5 μg/mL transferrin, […] (T3), 10 ng/mL epidermal growth factor (EGF), 1% penicillin-streptomycin, and 5% fetal bovine serum (FBS). All cells are passaged at 70% confluency at a split ratio of 1:5.
(§2) Polyamides for HPV 18 are dissolved at 10 mM in 100% DMSO and diluted with H2O to 1 mM. Polyamides are added to cells in E media at final concentrations of 0.1-10 μM, with final DMSO concentrations of 0.1%. As controls, cells are incubated with normal E media and E media containing the “vehicle” 0.1% DMSO. The HPV DNA levels are then quantified according to previously published procedures (Garner-Hamrick and Fisher, Virology, 301, 334-41, 2002). After incubation, cells are harvested from the plates by either trypsinization or direct lysis with proteinase K digestion buffer (PK buffer: 100 mM NaCl, 10 mM Tris pH 8, 25 mM EDTA, 0.5% SDS, 0.1 mg/mL proteinase K). Trypsinized cells are counted on a hemocytometer and pelleted by centrifugation. Episomal HPV is isolated by the Hirt method (Hirt, 1967) and cell pellets are lysed in 0.6% SDS with 10 mM EDTA. NaCl is next added to a final concentration of 1 M. Following an overnight incubation at 4° C., precipitates containing the chromosomal DNA are spun down and episomal DNA precipitated by the addition of isopropanol. Cells lysed directly in PK buffer are transferred to microfuge tubes and incubated at 50° C. for 2 h. Lysates are then extracted with phenol/chloroform/isoamyl alcohol and spun through a phase lock gel (Eppendorf, Hamburg, Germany). Total DNA is then precipitated with 0.3 M NaOAc and 2.5 vol. ethanol and resuspended in Tris-EDTA (TE) buffer.
HPV31 primers-probe sets for PCR were also designed within the L1 gene:
(§3) All primers and probes are synthesized and HPLC purified by Applied Biosystems (Foster City, Calif.). The HPV probes are labeled with the 5′ reporter dye FAM (6-carboxy-fluorescein) and the 3′ quencher dye TAMRA (6-carboxytetramethyl-rhodamine). A standard curve is generated using a range of 10^8 to 10 copies/reaction of cloned, genomic HPV31 or HPV18 DNA using the following formula: (1.82×10^15)(μg/μL stock DNA)/(length in base pairs)(2)=copies/μL stock DNA. PCR reactions contain final concentrations of 1× Universal Master Mix (PE Applied Biosystems), 200 nM of each primer, and 250 nM probe (PE Applied Biosystems) in a reaction volume of 25 μL. Each Hirt-isolated DNA sample is analyzed in triplicate reactions for episomal HPV. Copies/reaction are determined from the standard curve, and copies/cell determined according to the following formula: (copies/reaction)×(DNA dilution)/(total # cells)=copies/cell.
A general note: Quantitative PCR measures a nucleic acid by following its amplification.

In assay [2] the test system is HPV 16. The experiment in a line: HPV 16 episome DNA levels in W12E cells by Q-PCR (Taqman). Particulars: for pIC50: effective (pseudo) IC50, 50% reduction in HPV DNA relative to vehicle (0.1% DMSO), read-out: HPV-16 IC50. As for the experimental part:
Cells maintaining HPV 16 DNA were cultured for 72 hours in the presence of cidofovir, interferon γ or polyamide. Viral DNA was then quantified using real-time PCR and compared to vehicle (DMSO)-treated control cultures.
Compounds were initially tested for effects on HPV 16 episome DNA levels in W12E cells by Q-PCR (Taqman™) over 3 concentration ranges (0.1, 1 and 10 μM). W12E cells are a cervical keratinocyte cell line originally identified by M. Stanley (Cambridge University), and later optimized and provided by P. Lambert (U. of Wisconsin). […] In all cases (initial tests and follow-up IC50 tests), dose testing was performed in triplicate. […] Furthermore, all experiments were conducted in triplicate, multiple times. The data were then combined, pseudo or effective IC50 values calculated, and variance determined to reveal the fit of the data to the model and its reliability.
Keratinocytes that maintain HPV 16 episomes were treated with increasing concentrations of polyamides.

The test system of assay [3] is HPV18. As to the kind of experiment: HPV18 DNA levels in keratinocytes by real-time PCR. Particulars: effective (pseudo) IC50. On the procedure:
as §1, §2
Viral DNA levels are next quantified according to variations on our previously published methods (Garner-Hamrick and Fisher, Virology, 301, 334-41, 2002). Quantitative PCR is performed using Real-Time PCR technology on an ABI PRISM 7700 Sequence Detector. All primers and probes were designed using Primer Express 1.0 (ABI). For HPV 18, PCR primer-probe sets were designed within the L1 gene:
as §3

The term pIC50 denotes the IC50 on a negative log10 scale, so that one unit is a factor of ten.

pIC50: −log10 of the molar value. Where only a bound is given, the exact number is not on record here.

With `CN(C)CCCNC(=O)CCNC(=O)c1cc(NC(=O)CCNC(=O)c2cc(NC(=O)c3cc(NC(=O)c4cc(NC(=O)CCNC(=O)c5cc(NC(=O)c6cc(NC(=O)CCCNC(=O)CCNC(=O)c7cc(NC(=O)c8cc(NC(=O)CCNC(=O)c9cc(NC(=O)c%10cc(NC(=O)c%11cc(NC(=O)c%12nccn%12C)cn%11C)cn%10C)cn9C)cn8C)cn7C)cn6C)cn5C)cn4C)cn3C)cn2C)cn1C` [Polyamide 1022, ImPPPβPPβγPPβPPPβPβDp], the values for the negative logarithm of the IC50 (pIC50) in assay [1] and in assay [2] were not above 6.00 and less than 6.00, respectively.

Turning to `CN(C)CCCNC(=O)CCNC(=O)c1cc(NC(=O)c2cc(NC(=O)c3cc(NC(=O)c4cc(NC(=O)CCNC(=O)c5cc(NC(=O)c6cc(NC(=O)CCCNC(=O)c7cc(NC(=O)c8cc(NC(=O)c9cc(NC(=O)CCNC(=O)c%10cc(NC(=O)c%11cc(NC(=O)c%12nccn%12C)cn%11C)cn%10C)cn9C)cn8C)cn7C)cn6C)cn5C)cn4C)cn3C)cn2C)cn1C` [Polyamide 1023, ImPPβPPPγPPβPPPPβDp], the negative-log IC50 (pIC50) in assay [1] is not above 6.00; in assay [2], less than 6.00.

`CN(CCCN)CCCNC(=O)CCNC(=O)c1cc(NC(=O)CCNC(=O)c2cc(NC(=O)c3cc(NC(=O)c4cc(NC(=O)CCNC(=O)c5cc(NC(=O)c6cc(NC(=O)CCCNC(=O)CCNC(=O)c7cc(NC(=O)c8cc(NC(=O)CCNC(=O)c9cc(NC(=O)c%10cc(NC(=O)c%11cc(NC(=O)c%12nccn%12C)cn%11C)cn%10C)cn9C)cn8C)cn7C)cn6C)cn5C)cn4C)cn3C)cn2C)cn1C` [Polyamide 1027, ImPPPβPPβγPPβPPPβPβTa]: the pIC50 in assay [1], in assay [2] and in assay [3] was 6.00 to 7.00 each time.

For the compound `CN(C)CCCNC(=O)CCNC(=O)c1cc(NC(=O)CCNC(=O)c2cc(NC(=O)c3cc(NC(=O)c4cc(NC(=O)CCNC(=O)c5cc(NC(=O)c6cc(NC(=O)[C@H](N)CCNC(=O)CCNC(=O)c7cc(NC(=O)c8cc(NC(=O)CCNC(=O)c9cc(NC(=O)c%10cc(NC(=O)c%11cc(NC(=O)c%12nccn%12C)cn%11C)cn%10C)cn9C)cn8C)cn7C)cn6C)cn5C)cn4C)cn3C)cn2C)cn1C` [Polyamide 1029, ImPPPβPPβγNH2PPβPPPβPβDp], the pIC50 in assay [1] was 6.00 to 7.00; in assay [2], 6.00 to 7.00; in assay [3] it was not above 6.00.

Consider `CN(CCCN)CCCNC(=O)CCNC(=O)c1cc(NC(=O)c2cc(NC(=O)c3cc(NC(=O)c4cc(NC(=O)CCNC(=O)c5cc(NC(=O)c6cc(NC(=O)[C@H](N)CCNC(=O)c7cc(NC(=O)c8cc(NC(=O)c9cc(NC(=O)CCNC(=O)c%10cc(NC(=O)c%11cc(NC(=O)c%12nccn%12C)cn%11C)cn%10C)cn9C)cn8C)cn7C)cn6C)cn5C)cn4C)cn3C)cn2C)cn1C` [Polyamide 1030, ImPPβPPPγNH2PPβPPPPβTa], for which the negative-log IC50 (pIC50) in assay [1], in assay [2] and in assay [3] was 6.00 to 7.00 throughout.

Consider `CN(CCCN)CCCNC(=O)CCNC(=O)CCNC(=O)c1cc(NC(=O)c2cc(NC(=O)c3cc(NC(=O)CCNC(=O)c4cc(NC(=O)c5cc(NC(=O)c6cc(NC(=O)CCCNC(=O)c7cc(NC(=O)c8cc(NC(=O)c9cc(NC(=O)CCNC(=O)c%10cc(NC(=O)c%11cc(NC(=O)c%12cc(NC(=O)c%13nccn%13C)cn%12C)cn%11C)cn%10C)cn9C)cn8C)cn7C)cn6C)cn5C)cn4C)cn3C)cn2C)cn1C` [Polyamide 1031, ImPPPβPPPγPPPβPPPββTa], for which the pIC50 in assay [1], in assay [2] and in assay [3] was 6.00 to 7.00 throughout. Moreover, the “effect on absolute HPV 16 DNA levels” value in assay [2] (higher doses, in some experiments, FIG. 3) is listed as “nearly complete elimination of detectable viral DNA”.

With `CN(CCCN)CCCNC(=O)CCNC(=O)c1cc(NC(=O)CCNC(=O)c2cc(NC(=O)c3cc(NC(=O)c4cc(NC(=O)CCNC(=O)c5cc(NC(=O)c6cc(NC(=O)[C@H](N)CCNC(=O)CCNC(=O)c7cc(NC(=O)c8cc(NC(=O)CCNC(=O)c9cc(NC(=O)c%10cc(NC(=O)c%11cc(NC(=O)c%12nccn%12C)cn%11C)cn%10C)cn9C)cn8C)cn7C)cn6C)cn5C)cn4C)cn3C)cn2C)cn1C` [Polyamide 1032, ImPPPβPPβγNH2PPβPPPβPβTa], the negative-log IC50 (pIC50) in assay [1] and in assay [2] was 6.00 to 7.00 throughout.

In the case of `CN(CCCN)CCCNC(=O)CCNC(=O)CCNC(=O)c1cc(NC(=O)c2cc(NC(=O)c3cc(NC(=O)CCNC(=O)c4cc(NC(=O)c5cc(NC(=O)c6cc(NC(=O)C(N)CCNC(=O)c7cc(NC(=O)c8cc(NC(=O)c9cc(NC(=O)CCNC(=O)c%10cc(NC(=O)c%11cc(NC(=O)c%12cc(NC(=O)c%13nccn%13C)cn%12C)cn%11C)cn%10C)cn9C)cn8C)cn7C)cn6C)cn5C)cn4C)cn3C)cn2C)cn1C` (stereo not drawn) [Polyamide 1033, ImPPPβPPPγNH2PPPβPPPββTa], the negative logarithm of the IC50 (pIC50) in assay [1] is not above 6.00; in assay [2] it was less than 6.00.

For `CN(C)CCCNC(=O)CCNC(=O)c1cc(NC(=O)c2cc(NC(=O)c3cc(NC(=O)CCNC(=O)c4cc(NC(=O)c5cc(NC(=O)c6cc(NC(=O)CCNC(=O)c7cc(NC(=O)c8cc(NC(=O)CCCNC(=O)c9cc(NC(=O)c%10cc(NC(=O)CCNC(=O)c%11nc(NC(=O)c%12cc(NC(=O)c%13cc(NC(=O)CCNC(=O)c%14cc(NC(=O)c%15cc(NC(=O)c%16nccn%16C)cn%15C)cn%14C)cn%13C)cn%12C)cn%11C)cn%10C)cn9C)cn8C)cn7C)cn6C)cn5C)cn4C)cn3C)cn2C)cn1C` [Polyamide 1040, ImPPβPPIβPPγPPβPPPβPPPβDp], the negative-log IC50 (pIC50) in assay [1], in assay [2] and in assay [3] was 6.00 to 7.00 throughout.

On to `CN(CCCN)CCCNC(=O)CCNC(=O)c1cc(NC(=O)c2cc(NC(=O)c3cc(NC(=O)CCNC(=O)c4cc(NC(=O)c5cc(NC(=O)c6cc(NC(=O)CCNC(=O)c7cc(NC(=O)c8cc(NC(=O)CCCNC(=O)c9cc(NC(=O)c%10cc(NC(=O)CCNC(=O)c%11nc(NC(=O)c%12cc(NC(=O)c%13cc(NC(=O)CCNC(=O)c%14cc(NC(=O)c%15cc(NC(=O)c%16nccn%16C)cn%15C)cn%14C)cn%13C)cn%12C)cn%11C)cn%10C)cn9C)cn8C)cn7C)cn6C)cn5C)cn4C)cn3C)cn2C)cn1C` [Polyamide 1042, ImPPβPPIβPPγPPβPPPβPPPβTa], for which the pIC50 in assay [1] was not below 7.00.

For `CN(CCCN)CCCNC(=O)CCNC(=O)c1cc(NC(=O)c2cc(NC(=O)c3cc(NC(=O)CCNC(=O)c4cc(NC(=O)c5cc(NC(=O)c6cc(NC(=O)CCNC(=O)c7cc(NC(=O)CCNC(=O)CCCNC(=O)c8nc(NC(=O)c9cc(NC(=O)c%10cc(NC(=O)CCNC(=O)c%11cc(NC(=O)c%12nc(NC(=O)c%13cc(NC(=O)CCNC(=O)c%14cc(NC(=O)c%15cc(NC(=O)c%16nccn%16C)cn%15C)cn%14C)cn%13C)cn%12C)cn%11C)cn%10C)cn9C)cn8C)cn7C)cn6C)cn5C)cn4C)cn3C)cn2C)cn1C` [Polyamide 1045, ImPPβPIPβPPIγβPβPPPβPPPβTa], the results for the pIC50 in assay [1], in assay [2] and in assay [3] were not above 6.00, less than 6.00 and 6.00 to 7.00, respectively.

“ImPPPβPPPγNH2PPPβPPPββDp [Polyamide 1026]”: the negative logarithm of the IC50 (pIC50) in assay [1] and in assay [2] was 6.00 to 7.00 in each case.
